According to patent US10787435B2, “ASK1 inhibitor and preparation method and use thereof” (FUJIAN COSUNTER PHARMACEUTICAL CO., LTD., priority 2017, dated 2020):
pIC50: −log10 of the molar value.

How the values were obtained:
ASK1/MAP3K5 = ASK1/MAP3K5 (Homo sapiens (Human), UniProt Q99683); test: Evaluation of in vitro enzyme activity (33P-ATP radiometric kinase assay, MBP substrate); assay type: biochemical; settings: recombinant human full length GST-tagged ASK1 20 nM, MBP 20 μM
Method: Example 1: Evaluation of In Vitro Enzyme Activity
Base Reaction Buffer: 20 mM Hepes (pH 7.5), 10 mM MgCl2, 1 mM EGTA, 0.02% Brij35, 0.02 mg/ml BSA, 0.1 mM Na3VO4, 2 mM DTT, 1% DMSO
The test compound was formulated into a 10 mM stock solution in DMSO, which was diluted into 10 concentrations in 3-fold degression, and placed in a 384-well plate (Cyclic Olefin Copolymer LDV Echo®).
Kinase Name: ASK1/MAP3K5 (Invitrogen, Carlsbad, Calif.)
Type: Recombinant Human Full Length Protein, GST-tagged
Final concentration of the enzyme: 20 nM
Substrate: Myelin basic protein, MBP (Active Motif, Carlsbad, Calif.)
Final concentration of the substrate: 20 μM
1. The substrate was dissolved in a freshly prepared base reaction buffer.
2. A desired coenzyme was added to the above substrate solution.
3. The kinase was added to the substrate solution and mixed slowly.
4. The solution of the test compound in DMSO was added to the kinase reaction solution and incubated at room temperature for 20 minutes.
5. ^33P-ATP (specific activity of 10 μCi/μl) was added to the reaction solution to initiate the reaction.
6. Incubated at room temperature for 2 hours.
7. A small portion of the reactants was placed onto a P-81 ion exchange filter paper.
8. The filter paper was washed three times with 0.75% […] to wash off the unbound phosphate, and then the filter paper was dried.
9. The radioactivity remaining on the filter paper was determined.
10. Kinase activity data was expressed as the ratio of the kinase activity remaining in the test sample to the kinase activity in the vehicle (DMSO).
11. IC50 values and curve fits was obtained with Prism (GraphPad software).

[1] = Studies on pharmacokinetic properties in mice (plasma concentration by LC-MS/MS); assay type: in vivo; settings: C57BL/6 male mice, dose not stated; for Exposure: intravenous or oral administration; for bioavailability: mouse, po, intragastric vs tail vein
Method: Example 2: Studies on Pharmacokinetic Properties
C57BL/6 male mice were used as subject animals in the study. The concentration of the drug in the plasma of mice injected intravenously or administrated orally with the test compound was quantified at different time points by using a LC/MS/MS method to evaluate the pharmacokinetic characteristics of the test drug in mice.
A clear solution of the test compound was injected into C57BL/6 mice (overnight-fasted, 7-10 weeks old) via the tail vein, and the test compound was intragastrically administered to C57BL/6 mice (overnight-fasted, 7-10 weeks old). Approximately 30 μL of blood was collected from each animal via the jugular vein or tail vein at 0.0833, 0.25, 0.5, 1, 2, 4, 6, 8 and 24 hours after administration, and placed in an anticoagulant tube supplemented with EDTA-K2. Centrifuged at 3000 g at 4° C. for 15 min, and the plasma was collected. The plasma concentration was determined by LC-MS/MS. The pharmacokinetic parameters were calculated by using the non-compartment model and linear logarithmic trapezoidal method using the pharmacokinetic software WinNonlin™ Version 6.3 (Pharsight, Mountain View, Calif.).

Chain of ASK1/MAP3K5 (Q99683 whole entry): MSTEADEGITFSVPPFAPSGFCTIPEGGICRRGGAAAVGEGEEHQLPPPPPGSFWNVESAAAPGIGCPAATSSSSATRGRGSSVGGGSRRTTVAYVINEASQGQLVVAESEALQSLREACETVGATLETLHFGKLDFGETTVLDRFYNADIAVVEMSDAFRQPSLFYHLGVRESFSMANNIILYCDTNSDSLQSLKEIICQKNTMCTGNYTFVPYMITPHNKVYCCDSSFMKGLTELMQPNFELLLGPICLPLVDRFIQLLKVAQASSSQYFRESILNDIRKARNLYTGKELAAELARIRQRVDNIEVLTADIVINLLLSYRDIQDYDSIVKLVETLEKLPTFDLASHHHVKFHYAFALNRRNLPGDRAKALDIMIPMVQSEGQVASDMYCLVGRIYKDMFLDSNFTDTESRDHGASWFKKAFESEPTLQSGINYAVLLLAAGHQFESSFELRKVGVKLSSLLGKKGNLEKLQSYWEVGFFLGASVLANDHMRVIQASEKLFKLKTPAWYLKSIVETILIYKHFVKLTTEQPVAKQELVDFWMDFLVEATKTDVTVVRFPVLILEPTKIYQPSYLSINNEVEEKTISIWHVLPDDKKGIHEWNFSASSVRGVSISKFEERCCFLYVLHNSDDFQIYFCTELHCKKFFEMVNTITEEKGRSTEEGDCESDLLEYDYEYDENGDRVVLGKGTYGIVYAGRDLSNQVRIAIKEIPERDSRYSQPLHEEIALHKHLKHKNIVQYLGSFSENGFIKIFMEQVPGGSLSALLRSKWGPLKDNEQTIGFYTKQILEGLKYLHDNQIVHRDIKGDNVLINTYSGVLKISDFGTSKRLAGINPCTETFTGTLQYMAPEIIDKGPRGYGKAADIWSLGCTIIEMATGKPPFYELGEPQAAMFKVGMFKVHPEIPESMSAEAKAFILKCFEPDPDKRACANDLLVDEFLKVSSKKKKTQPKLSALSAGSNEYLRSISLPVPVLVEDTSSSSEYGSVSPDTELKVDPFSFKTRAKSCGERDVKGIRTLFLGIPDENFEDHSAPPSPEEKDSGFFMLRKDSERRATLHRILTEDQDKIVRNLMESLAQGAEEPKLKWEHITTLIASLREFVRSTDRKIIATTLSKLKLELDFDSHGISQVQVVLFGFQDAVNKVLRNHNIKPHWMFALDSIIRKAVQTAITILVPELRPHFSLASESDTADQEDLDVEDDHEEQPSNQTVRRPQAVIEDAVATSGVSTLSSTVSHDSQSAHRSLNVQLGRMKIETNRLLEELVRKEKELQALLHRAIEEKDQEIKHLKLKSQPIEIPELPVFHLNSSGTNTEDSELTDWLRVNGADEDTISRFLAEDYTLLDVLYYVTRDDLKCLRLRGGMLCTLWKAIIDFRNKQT

| Compound | pIC50 (ASK1/MAP3K5) | Exposure [1] [µM·h] | bioavailability [1] [%] |
| --- | --- | --- | --- |
| CC(C)n1cnnc1-c1cccc(-n2cnc3cc(OCCO)c(-n4cnc(C5CC5)c4)cc3c2=O)n1 [Example 041] | ≥ 7.30 |  |  |
| CC(C)n1cnnc1-c1cccc(-n2cnc3cc(-c4ccc(N)nc4)c(-n4cnc(C5CC5)c4)cc3c2=O)n1 [Example 034] | ≥ 7.30 |  |  |
| Cc1nnc(-c2cccc(-n3cnc4cc(C)c(-n5cnc(C6CC6)c5)cc4c3=O)n2)o1 [Example 020] | < 6.00 |  |  |
| Cc1cc2c(cc1-n1cnc(C3CC3)c1)C(=O)N(c1cccc(-c3nncn3C(C)C)n1)CC2 [Example 002] | ≥ 7.30 | 29.277 | 92 |
| CC(C)n1cnnc1-c1cccc(-n2cnc3cc(-c4ccsc4)c(-n4cnc(C5CC5)c4)cc3c2=O)n1 [Example 025] | ≥ 7.30 |  |  |
| CC(C)n1cnnc1-c1cccc(-n2cnc3ccc(-n4cnc(C5CC5)c4)cc3c2=O)n1 [Example 013] | ≥ 7.30 |  |  |
| COCCOc1cc2ncn(-c3cccc(-c4nncn4C(C)C)n3)c(=O)c2cc1-n1cnc(C2CC2)c1 [Example 035] | ≥ 7.30 |  |  |
| Cc1cc2ncn(-c3cccc(-c4nnc5n4CCC5)n3)c(=O)c2cc1-n1cnc(C2CC2)c1 [Example 028] | 6.00 to 7.30 |  |  |
| Cc1cc2ncn(-c3csc(-c4nncn4C(C)C)c3)c(=O)c2cc1-n1cnc(C2CC2)c1 [Example 042] | < 6.00 |  |  |
| Cc1cc2c(F)cn(-c3cccc(-c4nncn4C(C)C)n3)c(=O)c2cc1-n1cnc(C2CC2)c1 [Example 007] | ≥ 7.30 | 29.007 | 123 |
| CC(C)n1cnnc1-c1cccc(-n2cnc3cc(-c4cccnc4)c(-n4cnc(C5CC5)c4)cc3c2=O)n1 [Example 024] | ≥ 7.30 |  |  |
| CC(C)n1cnnc1-c1cccc(-n2cnc3cc(OCCCS(C)(=O)=O)c(-n4cnc(C5CC5)c4)cc3c2=O)n1 [Example 040] | ≥ 7.30 |  |  |
| CCc1cc2ncn(-c3cccc(-c4nncn4C(C)C)n3)c(=O)c2cc1-n1cnc(C2CC2)c1 [Example 022] | ≥ 7.30 |  |  |
| CC(C)n1cnnc1-c1cccc(-n2cnc3cc(N(C)C)c(-n4cnc(C5CC5)c4)cc3c2=O)n1 [Example 055] | ≥ 7.30 |  |  |
| Cc1cc2ncn(-c3cccc(-c4nncn4C4CCCC4)n3)c(=O)c2cc1-n1cnc(C2CC2)c1 [Example 044] | ≥ 7.30 |  |  |
| COc1cc2ncn(-c3cccc(-c4nncn4C(C)C)n3)c(=O)c2cc1-n1cnc(C2CC2)c1 [Example 031] | ≥ 7.30 |  |  |
| Cc1cc2ncn(-c3cccc(-c4nncn4C4CCOCC4)n3)c(=O)c2cc1-n1cnc(C2CC2)c1 [Example 048] | 6.00 to 7.30 |  |  |
| CC(C)n1cnnc1-c1cccc(-n2cnc3cc(OCC4COC4)c(-n4cnc(C5CC5)c4)cc3c2=O)n1 [Example 058] | ≥ 7.30 |  |  |
| Cc1cc2c(cc1-n1cnc(C3CC3)c1)C(=O)N(c1cccc(-c3nnc4n3CCC4)n1)CC2 [Example 008] | ≥ 7.30 | 103.95 | 98.5 |
| Cc1cc2ncn(-c3cccc(-c4nncn4C(C)C)n3)c(=O)c2cc1-n1cnc(-c2ccccc2)c1 [Example 050] | ≥ 7.30 |  |  |
| COc1nc2cc(C)c(-n3cnc(C4CC4)c3)cc2c(=O)n1-c1cccc(-c2nncn2C(C)C)n1 [Example 029] | < 6.00 |  |  |
| CC(C)n1cnnc1-c1cccc(-n2cnc3cc(Cl)c(-n4cnc(C5CC5)c4)cc3c2=O)n1 [Example 021] | ≥ 7.30 |  |  |
| CC(C)n1cnnc1-c1cccc(N2Cc3ccc(-n4cnc(C5CC5)c4)cc3C2=O)n1 [Example 005] | ≥ 7.30 |  |  |
| Cc1ccc(-c2cc3ncn(-c4cccc(-c5nncn5C(C)C)n4)c(=O)c3cc2-n2cnc(C3CC3)c2)cn1 [Example 032] | ≥ 7.30 |  |  |
| Cc1cc2ncn(-c3cccc(-c4nnc(C)n4C)n3)c(=O)c2cc1-n1cnc(C2CC2)c1 [Example 015] | < 6.00 |  |  |
| Cc1cc2ncn(-c3cccc(-c4nncn4C4CCC(F)(F)CC4)n3)c(=O)c2cc1-n1cnc(C2CC2)c1 [Example 049] | 6.00 to 7.30 |  |  |
| Cc1cc2ncn(-c3cccc(-c4nncn4CC(F)(F)F)n3)c(=O)c2cc1-n1cnc(C2CC2)c1 [Example 019] | ≥ 7.30 |  |  |

| Compound | pIC50 (ASK1/MAP3K5) | Exposure [1] [µM·h] | bioavailability [1] [%] |
| --- | --- | --- | --- |
| Cc1cc2ncn(-c3cccc(-c4nncn4C(C)C)c3)c(=O)c2cc1-n1cnc(C2CC2)c1 [Example 043] | < 6.00 |  |  |
| Cc1cc2ccn(-c3cccc(-c4nncn4C(C)C)n3)c(=O)c2cc1-n1cnc(C2CC2)c1 [Example 006] | ≥ 7.30 |  |  |
| Cc1cc2ncn(-c3cccc(-c4nncn4C4CC4)n3)c(=O)c2cc1-n1cnc(C2CC2)c1 [Example 018] | ≥ 7.30 | 59.568 | 111 |
| CC(C)n1cnnc1-c1cccc(-n2cnc3cc(-c4ccccc4)c(-n4cnc(C5CC5)c4)cc3c2=O)n1 [Example 023] | ≥ 7.30 |  |  |
| CC(C)n1cnnc1-c1cccc(-n2ccc3ccc(-n4cnc(C5CC5)c4)cc3c2=O)n1 [Example 004] | ≥ 7.30 |  |  |
| Cc1nc(C2CC2)cn1-c1ccc2c(c1)C(=O)N(c1cccc(-c3nnc4n3CCCC4)n1)CC2 [Example 012] | < 6.00 |  |  |
| CC(C)n1cnnc1-c1cccc(-n2cnc3cc(O)c(-n4cnc(C5CC5)c4)cc3c2=O)n1 [Example 037] | ≥ 7.30 |  |  |
| Cc1cc2ncn(-c3cccc(-c4nncn4C(C)(C)C)n3)c(=O)c2cc1-n1cnc(C2CC2)c1 [Example 047] | ≥ 7.30 |  |  |
| Cc1cc2ncn(-c3cccc(-c4nncn4C(C)C)n3)c(=O)c2cc1-n1cnc(C2CC2)c1 [Example 011] | ≥ 7.30 | 31.832 | 108 |
| CC(C)n1cnnc1-c1cccc(-n2cc(F)c3ccc(-n4cnc(C5CC5)c4)cc3c2=O)n1 [Example 003] | ≥ 7.30 | 66.259 | 214 |
| CC(C)n1cnnc1-c1cccc(-n2cnc3cc(OCC(N)=O)c(-n4cnc(C5CC5)c4)cc3c2=O)n1 [Example 038] | ≥ 7.30 |  |  |
| Cc1cc2ncn(-c3cccc(-c4nncn4C(C)C)n3)c(=O)c2cc1-c1ccc(C(C)C)nc1 [Example 052] | ≥ 7.30 |  |  |
| Cc1cc2c(cc1-n1cnc(C3CC3)c1)C(=O)N(c1cccc(-c3nnc4n3CCCC4)n1)CC2 [Example 009] | ≥ 7.30 | 89.099 | 115 |
| CC(C)n1cnnc1-c1cccc(-n2cnc3cc(N4CCOCC4)c(-n4cnc(C5CC5)c4)cc3c2=O)n1 [Example 056] | ≥ 7.30 |  |  |
| CNC(=O)COc1cc2ncn(-c3cccc(-c4nncn4C(C)C)n3)c(=O)c2cc1-n1cnc(C2CC2)c1 [Example 039] | ≥ 7.30 |  |  |
| CCC(CC)n1cnnc1-c1cccc(-n2cnc3cc(C)c(-n4cnc(C5CC5)c4)cc3c2=O)n1 [Example 045] | ≥ 7.30 |  |  |
| O=C1c2cc(-n3cnc4c3CCCC4)ccc2CCN1c1cccc(-c2nnc3n2CCCC3)n1 [Example 010] | 6.00 to 7.30 |  |  |
| Cc1cc2ncn(-c3cccc(-c4nnc(C)n4C(C)C)n3)c(=O)c2cc1-n1cnc(C2CC2)c1 [Example 016] | 6.00 to 7.30 |  |  |
| COc1ccc(-c2cc3ncn(-c4cccc(-c5nncn5C(C)C)n4)c(=O)c3cc2-n2cnc(C3CC3)c2)cn1 [Example 033] | ≥ 7.30 | 20.356 | 148 |
| Cc1cc2ncn(-c3csc(-c4nncn4C(C)C)n3)c(=O)c2cc1-n1cnc(C2CC2)c1 [Example 046] | ≥ 7.30 |  |  |
| Cc1cc2ncn(-c3cccc(-c4nnc5n4CCCC5)n3)c(=O)c2cc1-n1cnc(C2CC2)c1 [Example 014] | 6.00 to 7.30 |  |  |
| Cc1cc2ncn(-c3cccc(-c4nncn4C4CCCCC4)n3)c(=O)c2cc1-n1cnc(C2CC2)c1 [Example 051] | ≥ 7.30 |  |  |
| Cc1cc2ncn(-c3cccc(-c4nncn4C(C)CO)n3)c(=O)c2cc1-n1cnc(C2CC2)c1 (centres unmarked) [Example 057] | ≥ 7.30 |  |  |
| CC(C)n1cnnc1-c1cccc(N2CCc3ccc(-n4cnc(C5CC5)c4)cc3C2=O)n1 [Example 001] | ≥ 7.30 | 69.652 | 133 |
| CC(C)n1cnnc1-c1cccc(-n2cnc3cc(OCCCF)c(-n4cnc(C5CC5)c4)cc3c2=O)n1 [Example 054] | ≥ 7.30 |  |  |
| Cc1cc2c(F)cn(-c3cccc(-c4nnc5n4CCCC5)n3)c(=O)c2cc1-n1cnc(C2CC2)c1 [Example 017] | 6.00 to 7.30 |  |  |
